Converted amounts (≈) assume the structure as drawn. Counter-ions that a name gives are not always drawn.
Assay: physchem
Details: 20 °C, water, thermodynamic from solid
Method: The water solubility of the pharmacologically active ingredient was determined by the method described in the Japanese Pharmacopoeia, the General Rule 13, Paragraph 23.

SMILES	solubility at 30 min
CN(C)C(=O)C(CCN1CCC(O)(c2ccc(Cl)cc2)CC1)(c1ccccc1)c1ccccc1 [loperamide hydrochloride]	~1 mg/mL

Same assay, conditions: water, 20 °C, thermodynamic from solid

SMILES	solubility at 30 min
Nc1c(Br)cc(Br)cc1CN[C@H]1CC[C@H](O)CC1 [ambroxol hydrochloride]	~20 mg/mL
C[C@H](CS)C(=O)N1CCC[C@H]1C(=O)O [captopril]	~60 mg/mL (≈ 276000 µM)
O=c1[nH]c2ccccc2n1CCCN1CCC(n2c(=O)[nH]c3cc(Cl)ccc32)CC1 [domperidone]	~0.002 mg/mL (≈ 4.7 µM)

The next lines start with the values.

solubility at 30 min	SMILES
~100 mg/mL	COc1ccc(OC)c(C(O)CNC(=O)CN)c1 (stereo not drawn) [midodrine hydrochloride]
~0.7 mg/mL (≈ 2070 µM)	NC(N)=Nc1nc(CSCCC(N)=NS(N)(=O)=O)cs1 [famotidine]
